Data on 39 compounds can be found in patent publication US12612412B2, “Antiviral heterocyclic compounds” (Enanta Pharmaceuticals, Inc., priority 2021, dated 2026).

The test system of the assay is genotype A, "Long" strain RSV. In words: RSV-A assay (CPE protection in Hep-2 cells, ATPlite readout). It counts as cell-based, Human respiratory syncytial virus (HRSV). Particulars: human respiratory syncytial virus, genotype A “Long” strain RSV, MOI 0.1, CPE protection, read-out: Human RSV-A (“Long”). The procedure, abridged:
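Hep-2 cells (8,000/well) were treated with 2-fold serial compound dilutions in duplicate and infected with RSV at MOI 0.1. After 5 days, protection from cytopathic effect was measured as cell viability by ATPlite luminescence, and EC50 values were derived.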
(In general: ATP-based viability assays read luminescence as a measure of living cells.)

Turning to `Cc1c(C(=O)NC[C@](O)(c2cc3c(c(-c4ccc(F)cc4)n2)OC[C@]3(C)C(N)=O)C(F)(F)F)sc2ccccc12` [Example 435], the EC50 is above 200 nM.

For `C[C@]1(C(N)=O)COc2c1cc([C@@](O)(CNC(=O)c1cnc3cnccn13)C(F)(F)F)nc2-c1ccc(F)cc1` [Example 436], the EC50 was above 200 nM.

With `CC(C)c1csc(C(=O)NC[C@](O)(c2cc3c(c(-c4ccc(F)cc4)n2)OC[C@]3(C)C(N)=O)C(F)(F)F)n1` [Example 437], the EC50 was above 200 nM.

As to `C[C@]1(C(N)=O)COc2c1cc([C@@](O)(CNC(=O)c1ccc3[nH]ccc3c1F)C(F)(F)F)nc2-c1ccc(F)cc1` [Example 438], the EC50 was above 200 nM.

`C[C@]1(C(N)=O)COc2c1cc([C@@](O)(CNC(=O)c1cnn3ccncc13)C(F)(F)F)nc2-c1ccc(F)cc1` [Example 439]: the EC50 was above 200 nM.

With `COc1cc2ccc(C(=O)NC[C@](O)(c3cc4c(c(-c5ccc(F)cc5)n3)OC[C@]4(C)C(N)=O)C(F)(F)F)cc2cc1OC` [Example 440], the EC50 is below 200 nM.

With `COC(=O)C12CC(C(=O)NC[C@](O)(c3cc4c(c(-c5ccc(F)cc5)n3)OC[C@]4(C)C(N)=O)C(F)(F)F)(C1)C2` [Example 442], the EC50 was above 200 nM.

Regarding `C[C@]1(C(N)=O)COc2c1cc([C@@](O)(CNC(=O)c1cn(-c3ccccc3)nc1-c1ccccc1)C(F)(F)F)nc2-c1ccc(F)cc1` [Example 443], the EC50 was above 200 nM.

`C[C@]1(C(N)=O)COc2c1cc([C@@](O)(CNC(=O)c1cnn(-c3ccccc3)c1)C(F)(F)F)nc2-c1ccc(F)cc1` [Example 444]: the EC50 is below 200 nM.

On to `Cn1cc(C(=O)NC[C@](O)(c2cc3c(c(-c4ccc(F)cc4)n2)OC[C@]3(C)C(N)=O)C(F)(F)F)c(-c2ccccc2)n1` [Example 445], for which the EC50 is above 200 nM.

With `C[C@]1(C(N)=O)COc2c1cc([C@@](O)(CNC(=O)c1c[nH]nc1-c1ccccc1)C(F)(F)F)nc2-c1ccc(F)cc1` [Example 446], the EC50 was above 200 nM.

On to `COc1cccc(-c2nn(-c3ccccc3)cc2C(=O)NC[C@](O)(c2cc3c(c(-c4ccc(F)cc4)n2)OC[C@]3(C)C(N)=O)C(F)(F)F)c1` [Example 447], for which the EC50 is above 200 nM.

Consider `COc1cccc(-c2n[nH]cc2C(=O)NC[C@](O)(c2cc3c(c(-c4ccc(F)cc4)n2)OC[C@]3(C)C(N)=O)C(F)(F)F)c1` [Example 448], for which the EC50 was above 200 nM.

Regarding `COc1cccc(-n2cc(C(=O)NC[C@](O)(c3cc4c(c(-c5ccc(F)cc5)n3)OC[C@]4(C)C(N)=O)C(F)(F)F)cn2)c1` [Example 449], the EC50 was above 200 nM.

With `COc1ccc(-n2cc(C(=O)NC[C@](O)(c3cc4c(c(-c5ccc(F)cc5)n3)OC[C@]4(C)C(N)=O)C(F)(F)F)cn2)cc1` [Example 450], the EC50 is above 200 nM.

For the compound `C[C@]1(C(N)=O)COc2c1cc([C@@](O)(CNC(=O)c1cnn(-c3ccc(F)cc3)c1)C(F)(F)F)nc2-c1ccc(F)cc1` [Example 451], the EC50 was above 200 nM.

Take `Cc1nn(-c2ccccc2)cc1C(=O)NC[C@](O)(c1cc2c(c(-c3ccc(F)cc3)n1)OC[C@]2(C)C(N)=O)C(F)(F)F` [Example 452]: the EC50 is below 200 nM.

With `Cc1nn(-c2ccccc2)c(C)c1C(=O)NC[C@](O)(c1cc2c(c(-c3ccc(F)cc3)n1)OC[C@]2(C)C(N)=O)C(F)(F)F` [Example 453], the EC50 is above 200 nM.

For the compound `C[C@]1(C(N)=O)COc2c1cc([C@@](O)(CNC(=O)c1cnn(-c3ccccc3F)c1)C(F)(F)F)nc2-c1ccc(F)cc1` [Example 454], the EC50 is below 200 nM.

As to `C[C@]1(C(N)=O)COc2c1cc([C@@](O)(CNC(=O)c1cnn(-c3ccc(C(F)(F)F)cc3)c1)C(F)(F)F)nc2-c1ccc(F)cc1` [Example 455], the EC50 was above 200 nM.

`C[C@]1(C(N)=O)COc2c1cc([C@@](O)(CNC(=O)c1cnn(-c3ccccc3)c1C(F)(F)F)C(F)(F)F)nc2-c1ccc(F)cc1` [Example 456]: the EC50 is above 200 nM.

Turning to `C[C@]1(C(N)=O)COc2c1cc([C@@](O)(CNC(=O)c1cn(-c3ccccc3)nc1C(F)(F)F)C(F)(F)F)nc2-c1ccc(F)cc1` [Example 457], the EC50 is above 200 nM.

In the case of `Cc1c(C(=O)NC[C@](O)(c2cc3c(c(-c4ccc(F)cc4)n2)OC[C@]3(C)C(N)=O)C(F)(F)F)cnn1-c1ccccc1` [Example 458], the EC50 was below 200 nM.

For the compound `C[C@]1(C(N)=O)COc2c1cc([C@@](O)(CNC(=O)c1cnn(C3CC3)c1)C(F)(F)F)nc2-c1ccc(F)cc1` [Example 461], the EC50 was below 200 nM.

With `Cc1nc(C2CC2)sc1C(=O)NC[C@](O)(c1cc2c(c(-c3ccc(F)cc3)n1)OC[C@]2(C)C(N)=O)C(F)(F)F` [Example 462], the EC50 is below 200 nM.

In the case of `CC[C@@]1(C(N)=O)COc2c1cc([C@@](O)(CNC(=O)c1cc(OC)c3nn(C4CC4)cc3c1)C(F)(F)F)nc2-c1ccc(F)cc1` [Example 463], the EC50 was below 200 nM.

For `CC[C@]1(C(N)=O)COc2c1cc([C@@](O)(CNC(=O)c1cc(OC)c3nn(C4CC4)cc3c1)C(F)(F)F)nc2-c1ccc(F)cc1` [Example 464], the EC50 is below 200 nM.

With `C[C@]1(C(N)=O)COc2c1cc([C@@](O)(CNC(=O)c1csc(-c3ccccc3)n1)C(F)(F)F)nc2-c1ccc(F)cc1` [Example 482], the EC50 was above 200 nM.

Consider `Cc1sc(-c2ccccc2)nc1C(=O)NC[C@](O)(c1cc2c(c(-c3ccc(F)cc3)n1)OC[C@]2(C)C(N)=O)C(F)(F)F` [Example 483], for which the EC50 was above 200 nM.

In the case of `C[C@]1(C(N)=O)COc2c1cc([C@@](O)(CNC(=O)c1cnc(-c3ccccc3F)s1)C(F)(F)F)nc2-c1ccc(F)cc1` [Example 484], the EC50 is above 200 nM.

In the case of `Cc1nc(-c2ccccc2F)sc1C(=O)NC[C@](O)(c1cc2c(c(-c3ccc(F)cc3)n1)OC[C@]2(C)C(N)=O)C(F)(F)F` [Example 485], the EC50 was above 200 nM.

On to `C[C@]1(C(N)=O)COc2c1cc([C@@](O)(CNC(=O)c1cccc3nc(N)sc13)C(F)(F)F)nc2-c1ccc(F)cc1` [Example 490], for which the EC50 was below 200 nM.

On to `C[C@]1(C(N)=O)COc2c1cc([C@@](O)(CNC(=O)c1ccn3nc(C4CC4)cc3c1)C1CC1)nc2-c1ccc(F)c(Cl)c1` [Example 492], for which the EC50 is below 200 nM.

Consider `COc1cc(C(=O)NC[C@](O)(c2cc3c(c(-c4ccc(F)cc4Cl)n2)OC[C@]3(C)C(N)=O)C2CC2)cc2cn(C3CC3)nc12` [Example 535], for which the EC50 was below 200 nM.

Consider `COc1cc(C(=O)NC[C@](O)(c2cc3c(c(-c4cnc(C#N)c(Cl)c4)n2)OC[C@]3(C)C(N)=O)C(F)(F)F)cc2cc(Cl)c(C)nc12` [Example 584], for which the EC50 was below 200 nM.

`COc1cc(C(=O)NC[C@](O)(c2cc3c(c(-c4ccc(F)c(Cl)c4)n2)OC[C@]3(C)C(N)=O)C2CC2)cn2cc(C3CC3)nc12` [Example 634]: the EC50 is below 200 nM.

Regarding `COc1cc(C(=O)NC[C@@](O)(c2cc3c(c(-c4ccc(F)c(C)c4)n2)OC[C@]3(C)C(N)=O)C(F)(F)F)cc2cn(C3CC3)nc12` [Example 635], the EC50 was above 200 nM.

With `C[C@]1(C(N)=O)COc2c1cc([C@@](O)(CNC(=O)c1ccnc3cc[nH]c13)C(F)(F)F)nc2-c1ccc2c(c1)OC(F)(F)O2` [Example 701], the EC50 was below 200 nM.

Take `Cc1ccn2cc(C(=O)NC[C@](O)(c3cc4c(c(-c5ccc(F)cc5)n3)OC[C@]4(C)C(N)=O)C(F)(F)F)nc2c1` [Example 805]: the EC50 was above 200 nM.
